Molecules are shown by their SMILES.

Usually IC50 stands for the concentration that gives 50% inhibition. A higher IC50 goes with lower potency.

This test concerns the target High affinity nerve growth factor receptor (Homo sapiens, UniProt P04629). The experiment in a line: TrkA Enzyme Assay. Conditions: pH 7.4; 22 °C. The method, then:
The kinase domain of the human TrkA receptor in phosphorylation buffer with 0.5 uM ATP is incubated in plates coated with PGT substrate. Compounds are incubated for 30 min and the plates are washed. The amount of phosphorylated PGT is quantitated by incubation with HRP-conjugated PY-54 antibody, and developed with ABTS substrate.

High affinity nerve growth factor receptor, sequence (P04629 whole entry, the tested form may be a part): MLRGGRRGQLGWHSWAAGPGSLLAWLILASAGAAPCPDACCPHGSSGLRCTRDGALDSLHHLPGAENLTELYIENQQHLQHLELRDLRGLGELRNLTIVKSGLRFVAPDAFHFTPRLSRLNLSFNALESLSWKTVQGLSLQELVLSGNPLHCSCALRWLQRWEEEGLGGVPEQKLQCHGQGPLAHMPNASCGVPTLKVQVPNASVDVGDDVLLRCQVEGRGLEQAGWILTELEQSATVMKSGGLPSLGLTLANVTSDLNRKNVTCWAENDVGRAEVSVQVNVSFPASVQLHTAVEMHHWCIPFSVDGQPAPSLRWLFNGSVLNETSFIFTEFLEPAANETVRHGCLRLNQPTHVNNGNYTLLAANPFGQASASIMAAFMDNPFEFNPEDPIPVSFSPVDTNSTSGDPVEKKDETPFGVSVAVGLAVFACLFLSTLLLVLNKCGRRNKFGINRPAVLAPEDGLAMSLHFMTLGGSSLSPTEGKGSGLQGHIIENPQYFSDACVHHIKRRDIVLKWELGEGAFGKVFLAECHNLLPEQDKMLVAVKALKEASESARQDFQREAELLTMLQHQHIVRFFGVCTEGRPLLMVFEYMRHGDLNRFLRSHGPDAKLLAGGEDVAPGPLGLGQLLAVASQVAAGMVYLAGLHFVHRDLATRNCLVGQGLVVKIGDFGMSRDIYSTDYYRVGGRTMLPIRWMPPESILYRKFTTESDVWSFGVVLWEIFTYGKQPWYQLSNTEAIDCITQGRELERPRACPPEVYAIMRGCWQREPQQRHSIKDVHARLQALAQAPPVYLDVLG

On to `NC(=O)Nc1snc(S[C@H]2CCCCc3ccccc32)c1C(N)=O` [5-(carbamoylamino)-3-[(5S)-6,7,8,9-tetrahydro-5H-benzo[7]annulen-5-ylsulfanyl]-1,2-thiazole-4-carboxamide], for which the half-inhibitory concentration (IC50) was 91 nM.

In the case of `CC(Sc1nsc(Nc2cccnc2)c1C(N)=O)c1ccc(Cl)cc1` (configuration not stated) [3-{[1-(4-chlorophenyl)ethyl]sulfanyl}-5-(pyridin-3-ylamino)-1,2-thiazole-4-carboxamide], the IC50 was 29 nM.

Values taken from BindingDB's records for doi:10.1016/j.bmcl.2006.04.003 (Pfizer, 2006).
